The CheMixHub viscosity set
Several values for one entry are separate records, joined by “and”; a condition that tells them apart may be missing. Equal entries are not always repeated.

Test: xn = mol fraction of the nth substance listed

CCCCCCN + CCN(CC)CC
viscosity [mPa·s], 101.33 kPa
Conditions	x2 = 0.1014	x2 = 0.1952	x2 = 0.3807	x2 = 0.4897	x2 = 0.5912	x2 = 0.7898	x2 = 0.8946
303.15 K	0.6552	0.6088	0.5322	0.4934	0.4613	0.407	0.3827
313.15 K	0.5654	0.5278	0.4639	0.4323	0.4027	0.3627	0.3436

COC(=O)OC + CCCCCCCC
298.15 K, 101.3 kPa
Conditions	viscosity [mPa·s]
x1 = 0.0701	0.503
x1 = 0.1113	0.495
x1 = 0.2006	0.483
x1 = 0.2669	0.476
x1 = 0.2955	0.476
x1 = 0.4863	0.481
x1 = 0.6318	0.494
x1 = 0.6706	0.499
x1 = 0.7712	0.517
x1 = 0.8602	0.543
x1 = 0.9459	0.569

Oc1ccccc1 + c1ccccc1
Conditions	viscosity [mPa·s]
293.15 K, 101 kPa, x1 = 0.0507	0.683
293.15 K, 101 kPa, x1 = 0.0831	0.724
293.15 K, 101 kPa, x1 = 0.1719	0.865
293.15 K, 101 kPa, x1 = 0.2846	1.126
293.15 K, 101 kPa, x1 = 0.3763	1.401
293.15 K, 101 kPa, x1 = 0.4837	1.911
293.15 K, 101 kPa, x1 = 0.5924	2.642
293.15 K, 101 kPa, x1 = 0.7038	3.811
293.15 K, 101 kPa, x1 = 0.8043	5.35
298.15 K, 101.33 kPa, x1 = 0.083	0.6592
298.15 K, 101.33 kPa, x1 = 0.181	0.8516
298.15 K, 101.33 kPa, x1 = 0.2	0.841
298.15 K, 101.33 kPa, x1 = 0.239	0.9218
298.15 K, 101.33 kPa, x1 = 0.279	1.037
298.15 K, 101.33 kPa, x1 = 0.37	1.157
298.15 K, 101.33 kPa, x1 = 0.478	1.696
298.15 K, 101.33 kPa, x1 = 0.5	1.711
298.15 K, 101.33 kPa, x1 = 0.522	1.849
298.15 K, 101.33 kPa, x1 = 0.619	2.54
298.15 K, 101.33 kPa, x1 = 0.658	2.783
298.15 K, 101.33 kPa, x1 = 0.692	3.172
298.15 K, 101.33 kPa, x1 = 0.762	3.936
298.15 K, 101.33 kPa, x1 = 0.786	4.424
323.15 K, 101.33 kPa, x1 = 0.2	0.568
323.15 K, 101.33 kPa, x1 = 0.5	0.968

Oc1ccccc1 + C[N+](C)(C)CCO.[Cl-]
viscosity
Conditions	101 kPa	101.33 kPa
293.15 K, x2 = 0.2	–	61.78 mPa·s
293.15 K, x2 = 0.25	–	72.04 mPa·s
293.15 K, x2 = 0.333	137.7 mPa·s	–
298.15 K, x1 = 0.7	–	122.5 mPa·s
298.15 K, x1 = 0.8	–	56.11 mPa·s and 39.28 mPa·s and 30.65 mPa·s
298.15 K, x1 = 0.9	–	26.18 mPa·s
298.15 K, x2 = 0.333	99.81 mPa·s	–
303.15 K, x2 = 0.2	36.55 mPa·s	37.73 mPa·s
303.15 K, x2 = 0.25	41.2 mPa·s	43.1 mPa·s
303.15 K, x2 = 0.333	75.03 mPa·s and 76.44 mPa·s	–
308.15 K, x2 = 0.333	57.85 mPa·s	–
313.15 K, x2 = 0.2	23.57 mPa·s	24.63 mPa·s
313.15 K, x2 = 0.25	26.84 mPa·s	27.84 mPa·s
313.15 K, x2 = 0.333	46.41 mPa·s and 45.29 mPa·s	–
318.15 K, x2 = 0.333	35.93 mPa·s	–
323.15 K, x2 = 0.2	16.21 mPa·s	17.07 mPa·s
323.15 K, x2 = 0.25	18.62 mPa·s	19.11 mPa·s
323.15 K, x2 = 0.333	30.68 mPa·s and 28.71 mPa·s	–

CCCCCCN + CCOCCO
308.15 K, 101 kPa
Conditions	viscosity [mPa·s]
x2 = 0.1321	0.7283
x2 = 0.255	0.8766
x2 = 0.3698	1.026
x2 = 0.4772	1.172
x2 = 0.5779	1.305
x2 = 0.6726	1.426
x2 = 0.7616	1.469
x2 = 0.8456	1.457
x2 = 0.9249	1.445

OC(C(F)(F)F)C(F)(F)F + O
viscosity [mPa·s], 101 kPa
Conditions	298.15 K	303.15 K	313.15 K	323.15 K
x1 = 0.002095	0.921	0.824	0.671	0.559
x1 = 0.004456	0.959	0.857	0.691	0.575
x1 = 0.008636	1.027	0.911	0.73	0.602
x1 = 0.01141	1.076	0.951	0.756	0.621
x1 = 0.0205	1.22	1.069	0.84	0.682
x1 = 0.0264	1.31	1.147	0.897	0.727
x1 = 0.04493	1.583	1.383	1.075	0.869
x1 = 0.06872	1.854	1.606	1.246	0.997
x1 = 0.09912	2.077	1.797	1.377	1.094
x1 = 0.1716	2.251	1.93	1.463	1.147
x1 = 0.2057	2.246	1.934	1.459	1.142
x1 = 0.3052	2.102	1.83	1.4	1.086
x1 = 0.4208	1.879	1.633	1.262	1.004
x1 = 0.5004	1.76	1.541	1.202	0.964
x1 = 0.6306	1.636	1.433	1.119	0.907
x1 = 0.6778	1.606	1.405	1.102	0.883
x1 = 0.7422	1.585	1.39	1.077	0.864
x1 = 0.8064	1.575	1.374	1.049	0.849
x1 = 0.8456	1.575	1.372	1.045	0.833

COCCOCCOC + CCCCOC(C)=O
viscosity [mPa·s], 101.33 kPa
Conditions	x1 = 0.0863	x1 = 0.1754	x1 = 0.2733	x1 = 0.3672	x1 = 0.4639	x1 = 0.5609	x1 = 0.6688	x1 = 0.8022	x1 = 0.8835
298.15 K	0.706	0.734	0.764	0.791	0.822	0.852	0.884	0.924	0.948
303.15 K	0.659	0.684	0.712	0.736	0.764	0.791	0.82	0.856	0.878
308.15 K	0.616	0.639	0.664	0.686	0.714	0.737	0.768	0.796	0.816
313.15 K	0.578	0.599	0.622	0.641	0.665	0.69	0.712	0.742	0.759
318.15 K	0.542	0.562	0.583	0.601	0.622	0.642	0.665	0.692	0.709

NCCC(=O)N[C@@H](Cc1c[nH]cn1)C(=O)O + O
viscosity [mPa·s], 100 kPa
Conditions	x1 = 0.000358	x1 = 0.00054	x1 = 0.000713	x1 = 0.00108	x1 = 0.00126	x1 = 0.00143	x1 = 0.00162
293.15 K	1.024	1.028	1.03	1.046	1.053	1.058	1.06
298.15 K	0.908	0.909	0.915	0.928	0.933	0.938	0.938
303.15 K	0.813	0.814	0.818	0.831	0.835	0.839	0.84
308.15 K	0.732	0.733	0.738	0.747	0.752	0.756	0.756
313.15 K	0.663	0.664	0.669	0.676	0.681	0.683	0.685
